Laboratory results reported in PubChem BioAssay AID1259407 (Chemical Carcinogenesis Research Information System (CCRIS), 2018).
Active and inactive are the calls of the source. The rule behind the calls is not given here.

Tested on: CCRIS mutagenicity, Ames/micronucleus/aberration tests
Test: CCRIS mutagenicity studies
[1] = Test System: AMES SALMONELLA TYPHIMURIUM, Strain/Indicator: TA98, Metabolic Activation: NONE, Method: PREINCUBATION
[2] = Test System: AMES SALMONELLA TYPHIMURIUM, Strain/Indicator: TA98, Metabolic Activation: RAT, LIVER, S-9, PCB, Method: PREINCUBATION
[3] = Test System: AMES SALMONELLA TYPHIMURIUM, Strain/Indicator: TA98, Metabolic Activation: RAT LIVER S-9, PHENOBARBITAL AND BETA-NAPHTHOFLAVONE, Method: PREINCUBATION
[4] = Test System: AMES SALMONELLA TYPHIMURIUM, Strain/Indicator: TA100, Metabolic Activation: NONE, Method: PREINCUBATION
[5] = Test System: AMES SALMONELLA TYPHIMURIUM, Strain/Indicator: TA100, Metabolic Activation: RAT LIVER S-9, PHENOBARBITAL AND BETA-NAPHTHOFLAVONE, Method: PREINCUBATION
[6] = Test System: AMES SALMONELLA TYPHIMURIUM, Strain/Indicator: TA1535, Metabolic Activation: NONE, Method: PREINCUBATION
[7] = Test System: AMES SALMONELLA TYPHIMURIUM, Strain/Indicator: TA1537, Metabolic Activation: NONE, Method: PREINCUBATION
[8] = Test System: AMES SALMONELLA TYPHIMURIUM, Strain/Indicator: TA1537, Metabolic Activation: RAT LIVER S-9, PHENOBARBITAL AND BETA-NAPHTHOFLAVONE, Method: PREINCUBATION

`Nc1cccc2nc3ccccc3nc12` was tested, and the mutagenic call [1] was “active; positive” and the mutagenic call [2] was “inactive; negative”.

With `O=c1c2ccccc2c(=O)c2c1cc(Cl)c1[nH]c3c([nH]c12)c(Cl)cc1c(=O)c2ccccc2c(=O)c13` the mutagenic call (Test System: Ames Salmonella typhimurium, Strain/Indicator: TA98, Metabolic Activation: None, Method: Preincubation) was “active; positive”, the mutagenic call (Test System: Ames Salmonella typhimurium, Strain/Indicator: TA100, Metabolic Activation: None, Method: Preincubation) was “inactive; negative” and the mutagenic call (Test System: Ames Salmonella typhimurium, Strain/Indicator: TA102, Metabolic Activation: None, Method: Preincubation) was “inactive; negative”. The mutagenic call (Test System: Ames Salmonella typhimurium, Strain/Indicator: TA1535, Metabolic Activation: None, Method: Preincubation) was “inactive; negative”.

In the case of `O=C(O)c1ccccc1O`, the mutagenic call (Test System: AMES SALMONELLA TYPHIMURIUM, Strain/Indicator: TA98, Metabolic Activation: GUINEA PIG, LIVER, S-9, PCB, Method: PREINCUBATION) is reported as “inactive; negative”, the mutagenic call (Test System: AMES SALMONELLA TYPHIMURIUM, Strain/Indicator: TA98, Metabolic Activation: HAMSTER, LIVER, S-9, PCB, Method: PREINCUBATION) is reported as “inactive; negative” and the mutagenic call (Test System: AMES SALMONELLA TYPHIMURIUM, Strain/Indicator: TA98, Metabolic Activation: MOUSE, LIVER, S-9, PCB, Method: PREINCUBATION) is reported as “inactive; negative”. For the same compound, the mutagenic call [1] was “inactive; negative”, the mutagenic call [3] was “inactive; negative” and the mutagenic call [2] was “inactive; negative”. For the same compound, the mutagenic call (Test System: AMES SALMONELLA TYPHIMURIUM, Strain/Indicator: TA100, Metabolic Activation: GUINEA PIG, LIVER, S-9, PCB, Method: PREINCUBATION) was “inactive; negative”, the mutagenic call (Test System: AMES SALMONELLA TYPHIMURIUM, Strain/Indicator: TA100, Metabolic Activation: HAMSTER, LIVER, S-9, PCB, Method: PREINCUBATION) was “inactive; negative” and the mutagenic call (Test System: AMES SALMONELLA TYPHIMURIUM, Strain/Indicator: TA100, Metabolic Activation: MOUSE, LIVER, S-9, PCB, Method: PREINCUBATION) was “inactive; negative”. For the same compound, the mutagenic call [4] was “inactive; negative”, the mutagenic call [5] was “inactive; negative” and the mutagenic call [6] was “inactive; negative”. For the same compound, the mutagenic call (Test System: AMES SALMONELLA TYPHIMURIUM, Strain/Indicator: TA1535, Metabolic Activation: RAT LIVER S-9, PHENOBARBITAL AND BETA-NAPHTHOFLAVONE, Method: PREINCUBATION) was “inactive; negative”, the mutagenic call [7] was “inactive; negative” and the mutagenic call [8] was “inactive; negative”. For the same compound, the mutagenic call (Test System: E.COLI, Strain/Indicator: WP2UVRA/PKM101, Metabolic Activation: NONE, Method: PREINCUBATION) was “inactive; negative” and the mutagenic call (Test System: E.COLI, Strain/Indicator: WP2UVRA/PKM101, Metabolic Activation: RAT LIVER S-9, PHENOBARBITAL AND BETA-NAPHTHOFLAVONE, Method: PREINCUBATION) was “inactive; negative”.

`BrCCCCCBr` was tested, and the mutagenic call [1] was “inactive; negative”, the mutagenic call [3] was “inactive; negative” and the mutagenic call [4] was “inactive; negative”. The mutagenic call [5] was “inactive; negative”, the mutagenic call [7] was “inactive; negative” and the mutagenic call [8] was “inactive; negative”.

With `O=Nc1ccc(NNc2ccccc2)cc1` the mutagenic call (Test System: AMES SALMONELLA TYPHIMURIUM, Strain/Indicator: TA98, Metabolic Activation: RAT, LIVER, S-9, AROCLOR 1254, Method: STANDARD PLATE) was “active; positive” and the mutagenic call (Test System: AMES SALMONELLA TYPHIMURIUM, Strain/Indicator: TA100, Metabolic Activation: RAT, LIVER, S-9, AROCLOR 1254, Method: STANDARD PLATE) was “active; positive”.

In the case of `O=C1C=C(O)c2ccccc2C1=O`, the mutagenic call (Test System: AMES SALMONELLA TYPHIMURIUM, Strain/Indicator: TA98, Metabolic Activation: HAMSTER, LIVER, S-9, AROCLOR 1254 (10%), Method: PREINCUBATION) is reported as “inactive; negative”, the mutagenic call [1] is reported as “inactive; negative” and the mutagenic call (Test System: AMES SALMONELLA TYPHIMURIUM, Strain/Indicator: TA98, Metabolic Activation: RAT, LIVER, S-9, AROCLOR 1254 (10%), Method: PREINCUBATION) is reported as “inactive; negative”. The mutagenic call (Test System: AMES SALMONELLA TYPHIMURIUM, Strain/Indicator: TA98, Metabolic Activation: RAT, LIVER, S-9, PHENOBARBITAL AND 5,6-BENZOFLAVONE, Method: PREINCUBATION) was “inactive; negative”, the mutagenic call (Test System: AMES SALMONELLA TYPHIMURIUM, Strain/Indicator: TA100, Metabolic Activation: HAMSTER, LIVER, S-9, AROCLOR 1254 (10%), Method: PREINCUBATION) was “inactive; negative” and the mutagenic call [4] was “inactive; negative”. For the same compound, the mutagenic call (Test System: AMES SALMONELLA TYPHIMURIUM, Strain/Indicator: TA100, Metabolic Activation: RAT, LIVER, S-9, AROCLOR 1254 (10%), Method: PREINCUBATION) was “inactive; negative”, the mutagenic call (Test System: AMES SALMONELLA TYPHIMURIUM, Strain/Indicator: TA100, Metabolic Activation: RAT, LIVER, S-9, PHENOBARBITAL AND 5,6-BENZOFLAVONE, Method: PREINCUBATION) was “inactive; negative” and the mutagenic call (Test System: AMES SALMONELLA TYPHIMURIUM, Strain/Indicator: TA102, Metabolic Activation: NONE, Method: PREINCUBATION) was “inactive; negative”. The mutagenic call (Test System: AMES SALMONELLA TYPHIMURIUM, Strain/Indicator: TA102, Metabolic Activation: RAT, LIVER, S-9, PHENOBARBITAL AND 5,6-BENZOFLAVONE, Method: PREINCUBATION) was “inactive; negative”, the mutagenic call (Test System: AMES SALMONELLA TYPHIMURIUM, Strain/Indicator: TA104, Metabolic Activation: NONE, Method: PREINCUBATION) was “inactive; negative” and the mutagenic call (Test System: AMES SALMONELLA TYPHIMURIUM, Strain/Indicator: TA104, Metabolic Activation: RAT, LIVER, S-9, PHENOBARBITAL AND 5,6-BENZOFLAVONE, Method: PREINCUBATION) was “inactive; negative”. For the same compound, the mutagenic call (Test System: AMES SALMONELLA TYPHIMURIUM, Strain/Indicator: TA1535, Metabolic Activation: HAMSTER, LIVER, S-9, AROCLOR 1254 (10%), Method: PREINCUBATION) was “inactive; negative”, the mutagenic call [6] was “inactive; negative” and the mutagenic call (Test System: AMES SALMONELLA TYPHIMURIUM, Strain/Indicator: TA1535, Metabolic Activation: RAT, LIVER, S-9, AROCLOR 1254 (10%), Method: PREINCUBATION) was “inactive; negative”. The mutagenic call (Test System: AMES SALMONELLA TYPHIMURIUM, Strain/Indicator: TA1535, Metabolic Activation: RAT, LIVER, S-9, PHENOBARBITAL AND 5,6-BENZOFLAVONE, Method: PREINCUBATION) was “inactive; negative”, the mutagenic call (Test System: AMES SALMONELLA TYPHIMURIUM, Strain/Indicator: TA1537, Metabolic Activation: HAMSTER, LIVER, S-9, AROCLOR 1254 (10%), Method: PREINCUBATION) was “inactive; negative” and the mutagenic call [7] was “inactive; negative”. The mutagenic call (Test System: AMES SALMONELLA TYPHIMURIUM, Strain/Indicator: TA1537, Metabolic Activation: RAT, LIVER, S-9, AROCLOR 1254 (10%), Method: PREINCUBATION) was “active; positive”, the mutagenic call (Test System: AMES SALMONELLA TYPHIMURIUM, Strain/Indicator: TA1537, Metabolic Activation: RAT, LIVER, S-9, PHENOBARBITAL AND 5,6-BENZOFLAVONE, Method: PREINCUBATION) was “inactive; negative” and the mutagenic call (Test System: AMES SALMONELLA TYPHIMURIUM, Strain/Indicator: TA1538, Metabolic Activation: NONE, Method: PREINCUBATION) was “inactive; negative”. For the same compound, the mutagenic call (Test System: AMES SALMONELLA TYPHIMURIUM, Strain/Indicator: TA1538, Metabolic Activation: RAT, LIVER, S-9, PHENOBARBITAL AND 5,6-BENZOFLAVONE, Method: PREINCUBATION) was “inactive; negative”, the mutagenic call (Test System: AMES SALMONELLA TYPHIMURIUM, Strain/Indicator: TA2637, Metabolic Activation: NONE, Method: PREINCUBATION) was “inactive; negative” and the mutagenic call (Test System: AMES SALMONELLA TYPHIMURIUM, Strain/Indicator: TA2637, Metabolic Activation: RAT, LIVER, S-9, PHENOBARBITAL AND 5,6-BENZOFLAVONE, Method: PREINCUBATION) was “inactive; negative”.

For `CCn1c2ccccc2c2cc(C=O)ccc21`, the mutagenic call (End Point: IN VITRO CHROMOSOMAL ABERRATIONS, Test System: CHL CELLS, Metabolic Activation: RAT, LIVER, S-9, SODIUM PHENOBARBITAL AND 5,6-BENZOFLAVONE) was “active; positive (structural changes)”.
